In patent US20240058299A1 (Humanetics Corporation, priority 2021, published 2024):
Entries after “also recorded” stand apart in the source; their conditions may differ.

Columns and labels:
[1] = tested on: microHeart cells (human induced pluripotent stem cell-derived cardiac cells); assay: Survival of irradiated microHeart cells by trypan blue staining; type: cell-based
Protocol: Cell survival was measured by trypan blue staining. The number of surviving cells 24 hours after irradiation is plotted. […] Cell survival was measured by trypan blue staining. The number of surviving cells 72 hours after irradiation is plotted.
Further studies using genistein were conducted in microHeart cells (StemoniX, Maple Grove, MN) exposed to different types of radiation. […] Cell survival was evaluated 24 hours after radiation exposure. […] Cell survival was evaluated 72 hours after radiation exposure. […] Moreover, since cell death causes the release of pro-inflammatory signals, protecting cells from death may reduce inflammation.

[2] = Solubility in pharmaceutically acceptable solvents; type: physicochemical; conditions: several pharmaceutically acceptable solvents
Text: The relative amount of genistein included in such a suspension can be varied to yield a formulation having a desired total content of genistein.

[3] = tested on: NF-κB, pro-inflammatory cytokines (IL-1, IL-6, TNFα), pro-fibrotic proteins (TGFβ, MMP-2, MMP-9, LDH); conditions: literature reports; cited from earlier work

## O=c1c(-c2ccc(O)cc2)coc2cc(O)cc(O)c12 [genistein, 5,7-dihydroxy-3-(4-hydroxyphenyl)-4H-chromen-4-one]
[1]; 0.5 μM or 5 μM, 24 hours before 1 Gy γ-radiation, survival 24 hours after irradiation
  killing effect of γ-radiation (cell survival): the killing effect was mitigated by genistein; also recorded: Genistein treatment was radioprotective
[1]; 0.5 μM, 24 hours before 1 Gy mixed field radiation (˜32% neutron, −68% gamma), survival 72 hours after irradiation
  killing effect of mixed field radiation (cell survival): the killing effect was again mitigated by genistein; also recorded: genistein was radioprotective
[2]
  solubility: low to virtually no solubility
[3]
  expression of NF-κB, pro-inflammatory cytokines and pro-fibrotic proteins: reduce expression
